Assay results as given in patent US20240391931A1 (Bristol-Myers Squibb Company, priority 2021, published 2024).

Legend:
EGFR = EGFR (Homo sapiens, UniProt P00533); test: EGFR signaling (pEGFR Tyr1068/total EGFR MSD) in A431 cells; format: cell-based; set-up: endogenous in cells; host or cells: A431, N87; details: for EC50: A431 cells, read-out: A431 pEGFR EC50; for Selectivity A431 EC50/BT474 EC50: ratio A431 pEGFR EC50 to BT474 pHER2 EC50; for Selectivity A431 EC50/HEKYVMA EC50: ratio A431 pEGFR EC50 to HEK YVMA pHER2 EC50
Protocol: In addition to the engineered cell lines, the following cell lines were used: BT474 (human breast carcinoma), N87 (human gastric carcinoma), NCI-H1781 (human lung adenocarcinoma), and A431 (human epidermoid carcinoma); all cell lines were obtained from the American Type Culture Collection (ATCC, Manassas, VA). NCI-H1781 were grown in complete RPMI 1640 (Life Technologies, Carlsbad, CA) supplemented with 15% fetal bovine serum (FBS, Life Technologies, Carlsbad, CA) and 1% Penicillin-Streptomycin (P/S, Life Technologies, Carlsbad, CA). N87 cells were grown in complete RPMI 1640 supplemented with 10% FBS and 1% P/S. BT474 and A431 cells were grown in DMEM (Life Technologies, Carlsbad, CA) supplemented with 10% FBS and 1% P/S. All cells were maintained and propagated in a humidified 5% CO2 incubator at 37° C.
A431 Cells were plated in 96-well tissue-culture treated plates in full media for 6 h, then starved with media containing 0.1% FBS for overnight. Media was replaced with low serum media (1% FBS) containing compound at 10, 3.3, 1.1, 0.37, 0.12, 0.041, 0.014, 0.005 μM or DMSO control (0.1%). Cells were incubated for 1.5 hr, then stimulated with 100 ng/mL human EGF (PeproTech, Rocky Hill, NJ) for 10 minutes. Cells were washed with cold PBS, and lysed for 30 min on ice in complete MSD lysis buffer (prepared as described in HER2 Signaling Method); lysates were stored at −70° C. until further analysis. EGFR signaling was evaluated using phospho (Tyr 1068)/total EGFR whole cell lysate kit (Meso-Scale Discovery, Gaithersburg, MD). The phospho EGFR signal was normalized to total EGFR for each sample; results are reported as % DMSO control. The normalized data was fitted using a sigmoidal curve analysis program (Graph Pad Prism version 6) with variable Hill slope to determine EC50 values. The results are provided in Table 4, under column titled “A431-pEGFR EC50”.

HER2 WT = biological target: T1, HER2 WT (Homo sapiens, UniProt P04626); test: Enzymatic assay HER2 WT (method a); format: biochemical; details: [HER2 WT]=12.5 nM, [ATP]=25 μM, [Peptide 22]=1 μM
T1 construct: purchased ProQinase, Freiburg, Germany ERBB2 0108-0000-1
Protocol: (§1) A 2× stock solution of HER2 WT (ERBB2 0108-0000-1; ProQinase, Freiburg, Germany) corresponding to method a, was prepared as described below. Alternatively, a 2× stock solution of HER2YVMA (custom purification; Viva biotech, Shanghai, China) corresponding to method b, was prepared as described below. For method c, a 2× stock of EGFR (ERBB1 PR7295B, Thermo Fisher, Carlsbad, CA) was prepared as described below. All 2× solutions were prepared in buffer containing 50 mM HEPES, pH 7.5, 10 mM MnCl2, MgCl2, 0.005% Tween 20, 1 mM TCEP. 25 ul of 2× enzyme solution was added to a Seahorse low volume 384-well polypropylene assay plate (201288-100, Seahorse Bioscience, Chicopee, MA) containing 1 μl of compound serially diluted in 50% DMSO. To initiate the reaction, 25 μl of solution containing 2× final concentration of ATP and ProfilerPro Peptide 22 (760366, Perkin Elmer Hopkinton, MA) was added to each well. The reactions were separated on an LC3000 (Caliper Life Sciences) or a LabChip EZReader (Perkin Elmer) in kinetic mode.
(§2) At the conclusion of each assay, the data were exported from the instrument as a .rda file (LC3000) and processed in proprietary software, EZReviewer, which determines the percent of substrate converted to product within a given cycle as (P/P+S)*100 by measuring the amplitude of substrate and product peaks. Cycle time varied with amount of compounds tested between 8 and 12 cycles. Initial velocity (0-3600 s) from each reaction was determined from the slope of a plot of percent conversion at each cycle versus time (seconds). Percent inhibition was determined by dividing the slope of each reaction by the uninhibited control using 100*(1-(x/uninhibited control)). IC50 estimates were obtained by plotting the concentration of inhibitor versus percent inhibition in GraphPad Prism (GraphPad Software, San Diego, CA) using log[inhibitor] versus Response (Variable Slope Model); Y=Min+((Max-Min)/(1+((IC50/x)^Hillslope)))
(§3) • a) [HER2 WT]=12.5 nM, [ATP]=25 μM, [Peptide 22]=1 μM (ATP KMapp˜25 μM) • b) [HER2YVMA]=5 nM, [ATP]=25 μM, [Peptide 22]=1 μM (ATP KMapp˜15 μM) • c) [EGFR WT]=2 nM, [ATP]=1 mM, [Peptide 22]=1 μM (ATP KMapp˜25 μM)

HER2YVMA = HER2YVMA (Homo sapiens, UniProt P04626, INS775YVMA); test: Enzymatic assay HER2YVMA (method b); format: biochemical; set-up: purchased Viva biotech, Shanghai, China custom purification; details: [HER2YVMA]=5 nM, [ATP]=25 μM, [Peptide 22]=1 μM
Protocol: as §1, §2, §3

EGFR WT = biological target: T2, EGFR WT (Homo sapiens, UniProt P00533); test: Enzymatic assay EGFR WT (method c); format: biochemical; details: [EGFR WT]=2 nM, [ATP]=1 mM, [Peptide 22]=1 μM
T2 construct: purchased Thermo Fisher, Carlsbad, CA ERBB1 PR7295B
Protocol: as §1, §2, §3

HER2YVMA, sequence (P04626 with tags, fused parts or gaps INS775YVMA): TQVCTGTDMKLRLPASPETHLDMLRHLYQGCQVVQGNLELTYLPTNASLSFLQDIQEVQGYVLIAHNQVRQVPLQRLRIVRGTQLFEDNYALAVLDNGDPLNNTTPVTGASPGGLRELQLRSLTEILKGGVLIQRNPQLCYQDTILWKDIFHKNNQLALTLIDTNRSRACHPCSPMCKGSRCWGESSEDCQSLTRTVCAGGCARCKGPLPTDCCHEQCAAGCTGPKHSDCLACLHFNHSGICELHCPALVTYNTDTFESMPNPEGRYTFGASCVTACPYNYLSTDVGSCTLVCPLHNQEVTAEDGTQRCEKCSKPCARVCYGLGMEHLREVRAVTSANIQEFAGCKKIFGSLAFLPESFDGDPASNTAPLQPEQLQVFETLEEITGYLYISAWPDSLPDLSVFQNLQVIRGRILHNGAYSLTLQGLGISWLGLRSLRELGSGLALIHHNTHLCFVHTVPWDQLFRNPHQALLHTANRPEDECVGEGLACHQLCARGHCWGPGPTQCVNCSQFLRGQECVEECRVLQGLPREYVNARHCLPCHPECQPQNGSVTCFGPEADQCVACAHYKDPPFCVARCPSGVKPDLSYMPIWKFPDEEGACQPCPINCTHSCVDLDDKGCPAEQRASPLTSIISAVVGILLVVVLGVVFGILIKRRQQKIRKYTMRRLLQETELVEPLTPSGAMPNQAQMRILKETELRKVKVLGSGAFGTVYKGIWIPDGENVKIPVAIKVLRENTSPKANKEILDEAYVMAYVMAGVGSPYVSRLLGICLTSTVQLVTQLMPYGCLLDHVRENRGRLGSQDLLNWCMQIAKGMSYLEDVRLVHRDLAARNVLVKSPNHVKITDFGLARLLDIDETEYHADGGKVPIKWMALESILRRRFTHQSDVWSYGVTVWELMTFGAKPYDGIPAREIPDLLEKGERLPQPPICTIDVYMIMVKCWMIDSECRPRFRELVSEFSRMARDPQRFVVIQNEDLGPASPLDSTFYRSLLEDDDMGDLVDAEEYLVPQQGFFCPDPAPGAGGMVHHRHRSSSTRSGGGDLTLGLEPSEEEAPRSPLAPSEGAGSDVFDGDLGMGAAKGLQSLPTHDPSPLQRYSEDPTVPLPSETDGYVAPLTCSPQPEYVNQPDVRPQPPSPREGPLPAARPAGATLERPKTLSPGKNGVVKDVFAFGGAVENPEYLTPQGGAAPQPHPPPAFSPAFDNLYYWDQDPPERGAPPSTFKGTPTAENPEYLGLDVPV
T1 sequence (P04626 23-1255): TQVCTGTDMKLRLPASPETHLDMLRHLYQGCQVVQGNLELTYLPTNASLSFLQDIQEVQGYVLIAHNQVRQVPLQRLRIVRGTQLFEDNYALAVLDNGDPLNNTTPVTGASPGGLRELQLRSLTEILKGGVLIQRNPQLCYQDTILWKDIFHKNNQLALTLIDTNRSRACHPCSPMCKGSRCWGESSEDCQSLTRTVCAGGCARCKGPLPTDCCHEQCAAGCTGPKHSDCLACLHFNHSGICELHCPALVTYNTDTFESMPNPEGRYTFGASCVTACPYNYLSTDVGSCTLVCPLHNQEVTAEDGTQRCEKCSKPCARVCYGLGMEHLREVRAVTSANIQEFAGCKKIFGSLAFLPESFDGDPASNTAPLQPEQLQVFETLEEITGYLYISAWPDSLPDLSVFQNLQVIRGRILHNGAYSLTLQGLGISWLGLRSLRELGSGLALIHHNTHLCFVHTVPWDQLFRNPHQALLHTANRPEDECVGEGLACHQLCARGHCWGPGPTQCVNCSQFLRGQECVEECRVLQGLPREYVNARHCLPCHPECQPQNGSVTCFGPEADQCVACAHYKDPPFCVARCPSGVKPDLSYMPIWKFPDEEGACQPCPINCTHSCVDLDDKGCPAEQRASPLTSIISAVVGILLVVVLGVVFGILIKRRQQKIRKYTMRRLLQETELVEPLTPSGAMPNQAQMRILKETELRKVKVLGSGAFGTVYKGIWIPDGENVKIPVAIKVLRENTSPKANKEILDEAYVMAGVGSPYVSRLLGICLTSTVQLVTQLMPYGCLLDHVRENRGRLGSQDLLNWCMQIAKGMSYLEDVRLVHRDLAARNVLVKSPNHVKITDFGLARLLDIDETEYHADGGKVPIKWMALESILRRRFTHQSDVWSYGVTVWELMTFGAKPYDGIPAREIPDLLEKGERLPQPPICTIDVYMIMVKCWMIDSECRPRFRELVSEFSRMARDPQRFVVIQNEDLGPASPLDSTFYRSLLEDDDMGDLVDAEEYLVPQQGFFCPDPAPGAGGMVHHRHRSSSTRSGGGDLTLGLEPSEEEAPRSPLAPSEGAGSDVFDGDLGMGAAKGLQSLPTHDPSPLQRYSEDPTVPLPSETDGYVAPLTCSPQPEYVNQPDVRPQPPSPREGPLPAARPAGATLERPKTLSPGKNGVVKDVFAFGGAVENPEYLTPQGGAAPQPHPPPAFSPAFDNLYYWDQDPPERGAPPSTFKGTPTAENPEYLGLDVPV
T2 sequence (P00533 25-1210): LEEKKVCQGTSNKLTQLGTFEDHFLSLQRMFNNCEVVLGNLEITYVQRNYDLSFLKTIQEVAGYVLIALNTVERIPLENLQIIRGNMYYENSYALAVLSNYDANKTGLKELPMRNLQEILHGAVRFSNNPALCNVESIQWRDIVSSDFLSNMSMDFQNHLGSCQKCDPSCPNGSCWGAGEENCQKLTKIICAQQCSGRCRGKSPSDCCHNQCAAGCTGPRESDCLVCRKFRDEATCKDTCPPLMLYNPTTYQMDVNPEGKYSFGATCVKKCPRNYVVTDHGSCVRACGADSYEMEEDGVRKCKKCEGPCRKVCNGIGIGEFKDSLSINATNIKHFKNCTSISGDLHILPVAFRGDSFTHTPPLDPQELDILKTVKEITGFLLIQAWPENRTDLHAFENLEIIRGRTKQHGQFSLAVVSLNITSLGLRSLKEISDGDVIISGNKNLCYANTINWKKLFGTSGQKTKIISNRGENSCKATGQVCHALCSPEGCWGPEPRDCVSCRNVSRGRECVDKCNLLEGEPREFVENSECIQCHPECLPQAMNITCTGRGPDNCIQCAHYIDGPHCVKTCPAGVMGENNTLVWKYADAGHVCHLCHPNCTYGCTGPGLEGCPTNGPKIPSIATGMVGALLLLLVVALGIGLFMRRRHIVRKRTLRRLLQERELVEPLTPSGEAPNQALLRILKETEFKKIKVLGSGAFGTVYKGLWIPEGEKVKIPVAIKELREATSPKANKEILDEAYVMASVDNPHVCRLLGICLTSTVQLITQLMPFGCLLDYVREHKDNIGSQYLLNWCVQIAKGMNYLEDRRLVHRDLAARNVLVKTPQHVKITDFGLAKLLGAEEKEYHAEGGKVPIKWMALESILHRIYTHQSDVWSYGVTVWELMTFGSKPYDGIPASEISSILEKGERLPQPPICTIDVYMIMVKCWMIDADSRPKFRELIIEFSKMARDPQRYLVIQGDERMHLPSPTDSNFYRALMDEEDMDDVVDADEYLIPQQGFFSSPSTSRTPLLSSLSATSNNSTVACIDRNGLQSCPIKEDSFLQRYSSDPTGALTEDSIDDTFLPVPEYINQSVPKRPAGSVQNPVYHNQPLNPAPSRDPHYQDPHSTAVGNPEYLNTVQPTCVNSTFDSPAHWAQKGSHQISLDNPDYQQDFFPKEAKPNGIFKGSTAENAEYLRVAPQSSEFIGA
EGFR, sequence (P00533 25-1210): as above

Structure (SMILES)	EC50 (EGFR) [nM]	Selectivity A431 EC50/BT474 EC50 (EGFR)	Selectivity A431 EC50/HEKYVMA EC50 (EGFR)	IC50 (HER2 WT) [nM]	IC50 (HER2YVMA) [nM]	IC50 (EGFR WT) [nM]
Cc1ccc(Oc2ccc(Nc3ncnc4sc5c(c34)CCN(C(=O)/C=C/CN(C)C)CC5)cc2Cl)cn1 [Compound 167, (E)-1-(4-((3-Chloro-4-((6-methylpyridin-3-yl)oxy)phenyl)amino)-8,9-dihydro-5H-pyrimido[5′,4′:4,5]thieno[2,3-d]azepin-7(6H)-yl)-4-(dimethylamino)but-2-en-1-one]	100 to 1000	B (B: ≥ 20 and < 100)	E (E: >1 and < 5)	100 to 1000	100 to 1000	> 10000
COc1ccc(Oc2ccc(Nc3ncnc4sc5c(c34)C(C)CN(C(=O)/C=C/CN(C)C)C5)cc2C)cn1 (stereo not drawn) [Compound 152, (E)-4-(dimethylamino)-1-(4-((4-((6-methoxypyridin-3-yl)oxy)-3-methylphenyl)amino)-5-methyl-5,8-dihydropyrido[4′,3′:4,5]thieno[2,3-d]pyrimidin-7(6H)-yl)but-2-en-1-one]	100 to 1000	C (C: ≥ 10 and < 20)	C (C: ≥ 10 and < 20)	< 100	< 100	> 10000
Cc1ccc(Oc2ccc(Nc3ncnc4sc5c(c34)CCN(C(=O)/C=C/CN3CCC[C@H](CO)C3)C5)cc2C)cn1 [Compound 155]	< 100	B (B: ≥ 20 and < 100)	E (E: >1 and < 5)	< 100	< 100	> 10000
Cc1cc(Nc2ncnc3sc4c(c23)CCN(C(=O)/C=C/CN(C)C)CC4)ccc1Oc1ccn2ccnc2c1 [Compound 172, (E)-4-(Dimethylamino)-1-(4-((4-(imidazo[1,2-a]pyridin-7-yloxy)-3-methylphenyl)amino)-8,9-dihydro-5H-pyrimido[5′,4′:4,5]thieno[2,3-d]azepin-7(6H)-yl)but-2-en-1-one]	1000 to 10000	B (B: ≥ 20 and < 100)	C (C: ≥ 10 and < 20)	< 100	< 100	> 10000
Cc1ccc(Oc2ccc(Nc3ncnc4sc5c(c34)C(C)CN(C(=O)/C=C/CN(C)C(C)(C)C)C5)cc2C)cn1 (stereo not drawn) [Compound 175]	< 100	C (C: ≥ 10 and < 20)	E (E: >1 and < 5)	< 100	< 100	> 10000
COc1ccc(Oc2ccc(Nc3ncnc4sc5c(c34)CCN(C(=O)/C=C/CN3CC[C@@H](CO)C3)C5)cc2C)cn1 [Compound 143]	< 100	C (C: ≥ 10 and < 20)	E (E: >1 and < 5)	< 100	< 100	1000 to 10000
Cc1ccc(Oc2ccc(Nc3ncnc4sc5c(c34)CCN(C(=O)/C=C/CN3CC4CCC3C4)C5)cc2C)cn1 (stereo not drawn) [Compound 14]	< 100	D (D: ≥ 5 and < 10)	E (E: >1 and < 5)	< 100	< 100	> 10000
Cc1ccc(Oc2ccc(Nc3ncnc4sc5c(c34)CN(C(=O)C=CCN(C)C)C5C)cc2C)cn1 (single isomer, unassigned) [Compound 170]	< 100	B (B: ≥ 20 and < 100)	B (B: ≥ 20 and < 100)	1000 to 10000	1000 to 10000	> 10000
O=C(/C=C/CN1CCOCC1)N1CCc2c(sc3ncnc(Nc4ccc(Oc5ccc6ncnn6c5)c(Cl)c4)c23)C1 [Compound 18]	100 to 1000	B (B: ≥ 20 and < 100)	B (B: ≥ 20 and < 100)	< 100	< 100	> 10000
CCN(CC)C/C=C/C(=O)N1CCc2c(sc3ncnc(Nc4ccc(Oc5ccc(OC)nc5)c(C)c4)c23)C1 [Compound 137]	100 to 1000	D (D: ≥ 5 and < 10)	D (D: ≥ 5 and < 10)	< 100	< 100	> 10000
COc1ccc(Oc2ccc(Nc3ncnc4sc5c(c34)CCN(C(=O)/C=C/CN3CCOCC3)C5)cc2C)cn1 [Compound 164]	100 to 1000	C (C: ≥ 10 and < 20)	D (D: ≥ 5 and < 10)	100 to 1000	100 to 1000	> 10000
Cc1ccc(Oc2ccc(Nc3ncnc4sc5c(c34)CCN(C(=O)/C=C/CN3CCC(CO)(CO)CC3)C5)cc2C)cn1 [Compound 135]	1000 to 10000	B (B: ≥ 20 and < 100)	D (D: ≥ 5 and < 10)	< 100	< 100	> 10000
C#CCOCCN(C)C/C=C/C(=O)N1CCc2c(sc3ncnc(Nc4ccc(Oc5ccc(C)nc5)c(C)c4)c23)C1 [Compound 139]	< 100	B (B: ≥ 20 and < 100)	B (B: ≥ 20 and < 100)	< 100	< 100	> 10000
